According to patent publication US20240277713A1 (Kadmon Corporation, LLC, priority 2022, published 2024):
Marks after values point to notes of the source that are not given here.

Tests used:
BCRP = molecular target: T1, BCRP (Homo sapiens, UniProt Q9UNQ0); test: Transporter systems in vitro: BCRP; assay type: in vitro ADME; conditions: clinically relevant concentrations
T1 sequence (Q9UNQ0 1-655): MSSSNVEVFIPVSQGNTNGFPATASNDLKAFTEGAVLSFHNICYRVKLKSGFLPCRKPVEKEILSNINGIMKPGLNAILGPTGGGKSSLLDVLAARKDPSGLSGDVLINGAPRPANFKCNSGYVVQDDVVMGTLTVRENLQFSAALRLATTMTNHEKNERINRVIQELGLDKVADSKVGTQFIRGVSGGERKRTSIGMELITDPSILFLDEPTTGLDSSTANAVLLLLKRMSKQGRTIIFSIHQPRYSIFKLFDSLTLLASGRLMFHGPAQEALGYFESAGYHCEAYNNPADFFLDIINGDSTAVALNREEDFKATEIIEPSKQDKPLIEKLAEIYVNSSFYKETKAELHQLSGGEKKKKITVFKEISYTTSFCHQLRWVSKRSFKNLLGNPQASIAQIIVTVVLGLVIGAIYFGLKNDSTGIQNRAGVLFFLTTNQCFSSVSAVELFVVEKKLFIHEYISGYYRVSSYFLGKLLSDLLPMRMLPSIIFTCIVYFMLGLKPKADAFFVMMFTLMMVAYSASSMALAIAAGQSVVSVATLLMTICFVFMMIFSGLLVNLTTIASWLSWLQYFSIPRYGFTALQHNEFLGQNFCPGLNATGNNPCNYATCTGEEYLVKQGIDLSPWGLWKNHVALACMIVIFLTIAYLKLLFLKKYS

Sprague-Dawley rats = test: Embryo-fetal developmental toxicity study in Sprague-Dawley rats (Example 3)
Procedure: For this study, a total of 140 time-mated female rats (approximately 8 to 10 weeks of age) were obtained from Charles River Laboratories, Raleigh, North Carolina, and acclimated from the time of arrival until the time of dosing on GD 6. During the acclimation period, the animals were observed twice daily with respect to general health and any signs of disease. All animals were given a detailed clinical examination and body weights were recorded prior to selection. […] Food consumption was collected during the acclimation period.
Animals received in-life and postmorten evaluations. […] All fetuses were given an external and visceral or skeletal examination.
Detailed clinical observations were made daily from GD 6 through 20 (4 hours±1 hour postdose on dosing days).
Food consumption for main study animals was measured and recorded on the corresponding body weight days and calculated for the same intervals.
The placentae were examined grossly.
The foci, if detected, were considered early resorptions, and data from this female were included in mean calculations

CC(C)NC(=O)COc1cccc(-c2nc(Nc3ccc4[nH]ncc4c3)c3ccccc3n2)c1 [belumosudil, 2-{3-[4-(1H-indazol-5-ylamino)-2-quinazolinyl]phenoxy}-N-(propan-2-yl) acetamide]
BCRP inhibition (BCRP): inhibits
Maternal Body Weight Change GD 6-9 (Sprague-Dawley rats; 15 mg base/kg/day): 10.0 g
Maternal Body Weight Change GD 6-18 (Sprague-Dawley rats; 15 mg base/kg/day): 93.8 g
Maternal Body Weight Change GD 6-20 (Sprague-Dawley rats; 15 mg base/kg/day): 127.9 g
Maternal Body Weight Change GD 18-20 (Sprague-Dawley rats; 15 mg base/kg/day): 34.0 g
Maternal Body Weight GD 9 (Sprague-Dawley rats; 15 mg base/kg/day): 231.7 g
Maternal Body Weight GD 12 (Sprague-Dawley rats; 15 mg base/kg/day): 257.0 g
Maternal Body Weight GD 15 (Sprague-Dawley rats; 15 mg base/kg/day): 272.8 g
Maternal Body Weight GD 18 (Sprague-Dawley rats; 15 mg base/kg/day): 315.5 g
Maternal Body Weight GD 20 (Sprague-Dawley rats; 15 mg base/kg/day): 349.6 g
Maternal Food Consumption GD 6-9 (Sprague-Dawley rats; 15 mg base/kg/day): 19.0
Maternal Food Consumption GD 6-18 (Sprague-Dawley rats; 15 mg base/kg/day): 22.6
Maternal Food Consumption GD 6-20 (Sprague-Dawley rats; 15 mg base/kg/day): 23.2
Maternal Food Consumption GD 18-20 (Sprague-Dawley rats; 15 mg base/kg/day): 27.3
Mean Fetal Body Weight Females (Sprague-Dawley rats; 15 mg base/kg/day): 4.00 g
Mean Fetal Body Weight Genders Combined (Sprague-Dawley rats; 15 mg base/kg/day): 4.10 g
Mean Fetal Body Weight Males (Sprague-Dawley rats; 15 mg base/kg/day): 4.19 g
Adjusted Final Body Weight, Mean (Sprague-Dawley rats; 15 mg base/kg/day (N = 25)): 278.5 g
Adjusted Weight Change From Day 6, Mean (Sprague-Dawley rats; 15 mg base/kg/day (N = 25)): 56.8
Final Body Weight, Mean (Sprague-Dawley rats; 15 mg base/kg/day (N = 25)): 349.6 g
Gravid Uterine Weight, Mean (Sprague-Dawley rats; 15 mg base/kg/day (N = 25)): 71.0 g
Discharge, Brown, Vulva, times observed/animals (Sprague-Dawley rats; 15 mg base/kg/day, GD 6-20): 1/1
Discharge, Red, Vulva, times observed/animals (Sprague-Dawley rats; 15 mg base/kg/day, GD 6-20): 0/0
Ear/portion of ear missing, Ear/left, times observed/animals (Sprague-Dawley rats; 15 mg base/kg/day, GD 6-20): 13/1
Hair sparse, Abdominal region, times observed/animals (Sprague-Dawley rats; 15 mg base/kg/day, GD 6-20): 7/1
Hair sparse, Cervical region, times observed/animals (Sprague-Dawley rats; 15 mg base/kg/day, GD 6-20): 0/0
Hair sparse, Forefoot/left, times observed/animals (Sprague-Dawley rats; 15 mg base/kg/day, GD 6-20): 4/2
Hair sparse, Forefoot/right, times observed/animals (Sprague-Dawley rats; 15 mg base/kg/day, GD 6-20): 0/0
Hair sparse, Forelimb/left, times observed/animals (Sprague-Dawley rats; 15 mg base/kg/day, GD 6-20): 12/3
Hair sparse, Forelimb/right, times observed/animals (Sprague-Dawley rats; 15 mg base/kg/day, GD 6-20): 17/3
Hair sparse, Hind limb/left, times observed/animals (Sprague-Dawley rats; 15 mg base/kg/day, GD 6-20): 0/0
Hair sparse, Hind limb/right, times observed/animals (Sprague-Dawley rats; 15 mg base/kg/day, GD 6-20): 0/0
Hair sparse, Lumbar region, times observed/animals (Sprague-Dawley rats; 15 mg base/kg/day, GD 6-20): 0/0
Hair sparse, Thoracic region, times observed/animals (Sprague-Dawley rats; 15 mg base/kg/day, GD 6-20): 0/0
Scabbed area, Face, times observed/animals (Sprague-Dawley rats; 15 mg base/kg/day, GD 6-20): 7/1
Scabbed area, Forelimb/right, times observed/animals (Sprague-Dawley rats; 15 mg base/kg/day, GD 6-20): 4/1
Scabbed area, Tail, times observed/animals (Sprague-Dawley rats; 15 mg base/kg/day, GD 6-20): 0/0
Scabbed area, Thoracic region, times observed/animals (Sprague-Dawley rats; 15 mg base/kg/day, GD 6-20): 1/1
Tail missing - portion, times observed/animals (Sprague-Dawley rats; 15 mg base/kg/day, GD 6-20): 0/0
Maternal Body Weight Change GD 6-9 (Sprague-Dawley rats; 50 mg base/kg/day): 6.2^b g
Maternal Body Weight Change GD 6-18 (Sprague-Dawley rats; 50 mg base/kg/day): 78.8^b g
Maternal Body Weight Change GD 6-20 (Sprague-Dawley rats; 50 mg base/kg/day): 115.9^b g
Maternal Body Weight Change GD 18-20 (Sprague-Dawley rats; 50 mg base/kg/day): 37.1 g
Maternal Body Weight GD 9 (Sprague-Dawley rats; 50 mg base/kg/day): 225.5^a g
Maternal Body Weight GD 12 (Sprague-Dawley rats; 50 mg base/kg/day): 246.3^b g
Maternal Body Weight GD 15 (Sprague-Dawley rats; 50 mg base/kg/day): 262.6^b g
Maternal Body Weight GD 18 (Sprague-Dawley rats; 50 mg base/kg/day): 298.1^b g
Maternal Body Weight GD 20 (Sprague-Dawley rats; 50 mg base/kg/day): 335.2^b g
Maternal Food Consumption GD 6-9 (Sprague-Dawley rats; 50 mg base/kg/day): 15.5^b
Maternal Food Consumption GD 6-18 (Sprague-Dawley rats; 50 mg base/kg/day): 20.0^b
Maternal Food Consumption GD 6-20 (Sprague-Dawley rats; 50 mg base/kg/day): 21.3^b
Maternal Food Consumption GD 18-20 (Sprague-Dawley rats; 50 mg base/kg/day): 29.0
Mean Fetal Body Weight Females (Sprague-Dawley rats; 50 mg base/kg/day): 3.94 g
Mean Fetal Body Weight Genders Combined (Sprague-Dawley rats; 50 mg base/kg/day): 4.06 g
Mean Fetal Body Weight Males (Sprague-Dawley rats; 50 mg base/kg/day): 4.19 g
Adjusted Final Body Weight, Mean (Sprague-Dawley rats; 50 mg base/kg/day (N = 25)): 266.4^b g
Adjusted Weight Change From Day 6, Mean (Sprague-Dawley rats; 50 mg base/kg/day (N = 25)): 47.1^b
Final Body Weight, Mean (Sprague-Dawley rats; 50 mg base/kg/day (N = 25)): 335.2^b g
Gravid Uterine Weight, Mean (Sprague-Dawley rats; 50 mg base/kg/day (N = 25)): 68.8 g
Discharge, Brown, Vulva, times observed/animals (Sprague-Dawley rats; 50 mg base/kg/day, GD 6-20): 1/1
